The record followed here is patent EP0157637A2, “Heterocyclic compounds” (THE WELLCOME FOUNDATION LIMITED, priority 1984, dated 1985).

For one data set, the system named is rats. Briefly: maximal electroshock test (MES), anticonvulsant activity in rats. The following applies: for ED50: Rattus norvegicus. Type of data set: in vivo. As to the method: The anticonvulsant activity of certain compounds of the present invention was determined by a standard maximal electroshock test (MES); that described by L.A. Woodbury and V.D. Davenport, Arch. Int. Pharmacodyn., 1952, 92, 97.
Background: In the maximal electroshock model the usual endpoint is tonic extension of the hind limbs.

In another data set the test system is Eimeria tenella. Briefly: in vivo anticoccidial activity against Eimeria tenella. Conditions: Concentration 400 ppm, cleared/total. As for the experimental part: The in vivo activity of two compounds of the present invention and a compound disclosed in US Patent No. 4189485 were determined against Eimeria tenella by the method disclosed in European Patent No. 0021293.

A short description of a further data set: LD50 in the rat. The following applies: in vivo, po, approximate.
Where [1] appears, read: ip, rats, i.p., read-out: MES ED50 (mg/kg) i.p.
Where [2] appears, read: po, rats, p.o., read-out: MES ED50 (mg/kg) p.o.

Where two headings read alike, the source gives them in different places.

Regarding `OCNc1ncnc2c1ncn2Cc1ccccc1F` [Compound 29, 9-(2-Fluorobenzyl)-6-hydroxymethylamino-9H-purine], in the data set with rats (setting [1]), the ED50 worked out at 4 mg/kg.
With `CCN(CC)c1ncnc2c1ncn2Cc1ccccc1F` [Compound 10, 6-diethylamino-9-(2-fluorobenzyl)-9H-purine], the ED50 came to 4.2 ± 0.5 mg/kg in the data set on rats (setting [1]) and 5.9 ± 0.6 mg/kg in the data set on rats (setting [2]).
On the same counts, the results for `Fc1ccccc1Cn1cnc2c(NCC3CC3)ncnc21` [Compound 6, 6-cyclopropylmethylamino-9-(2-fluorobenzyl)-9H-purine] are 4.3 ± 0.9 mg/kg and 6.3 ± 1 mg/kg.
Regarding `CN(c1ncnc2c1ncn2Cc1ccccc1F)C1CC1` [Compound 7, 9-(2-fluorobenzyl)-6-(N-methylcyclopropylamino)-9H-purine], in the data set with rats (setting [1]), the ED50 was 6.8 ± 0.8 mg/kg.
Consider `COCN(C)c1ncnc2c1ncn2Cc1ccccc1F` [Compound 30, 9-(2-Fluorobenzyl)-6-(N-methoxymethyl-N-methylamino)-9H-purine], for which the ED50 with rats (setting [1]) came out at 5 mg/kg.
For `O=C1NC(=O)C(c2ccccc2)(c2ccccc2)N1` [phenytoin (Dilantin), 5,5-diphenylhydantoin, reference compound], the ED50 in the data set with rats (setting [1]) stood at 10 ± 2 mg/kg; with rats (setting [2]) it was 20 ± 3 mg/kg.
Taken in the same sequence, the figures for `CCN(C)c1ncnc2c1ncn2Cc1ccccc1F` [Compound 8] were 2.9 ± 0.3 mg/kg and 6 ± 0.5 mg/kg.
On to `Fc1ccccc1Cn1cnc2c(NC3CC3)ncnc21` [Compound 3, 6-cyclopropylamino-9-(2-fluorobenzyl)-9H-purine], for which the ED50 came to 5 ± 0.4 mg/kg with rats (setting [1]) and 7.8 ± 0.8 mg/kg in the data set on rats (setting [2]).
For the compound `CN(C)c1ncnc2c1ncn2Cc1ccccc1F` [Compound 2, 6-dimethylamino-9-(2-fluorobenzyl)-9H-purine], the ED50 in the data set on rats (setting [1]) turned out to be 8.8 ± 1.7 mg/kg. In addition, in the data set on Eimeria tenella, the E.tenella cleared is given as 0/5.
As to `CNc1ncnc2c1ncn2Cc1cc(F)ccc1F` [Compound 15, 9-(2,5-Difluorobenzyl)-6-methylamino-9H-purine], the results for the ED50 in the data set with rats (setting [1]) and in the data set with rats (setting [2]) were 4 ± 0.6 mg/kg and 7 ± 1 mg/kg, respectively.
On the same counts, the results for `Fc1cccc(F)c1Cn1cnc2c(NC3CC3)ncnc21` [Compound 12, 6-cyclopropylamino-9-(2,6-difluorobenzyl)-9H-purine] are 4 mg/kg and 12.5 mg/kg.
Turning to `CN(C)c1ncnc2c1ncn2Cc1c(F)cccc1F` [Compound 14, ^g-(2,6-difluorobenzyl)-6-dimethylamino-9H-purine], the results for the ED50 in the data set with rats (setting [1]) and in the data set on rats (setting [2]) were 2.2 ± 0.2 mg/kg and 3.8 ± 0.6 mg/kg, respectively.
As to `CCNc1ncnc2c1ncn2Cc1ccccc1F` [Compound 4, 6-ethylamino-9-(2-fluorobenzyl)-9H-purine], the ED50 in the data set on rats (setting [1]) is 4.9 ± 0.5 mg/kg.
With `COCNc1ncnc2c1ncn2Cc1ccccc1F` [Compound 31, 9-(2-Fluorobenzyl)-6-methoxymethylamino-9H-purine], the “MES, % at 6.25mg/kg” value in the data set on rats (rats, 6.25mg/kg, printed in the i.p. column in place of an ED50) is “(17% at 6.25mg/kg)”.
With `CC(C)Nc1ncnc2c1ncn2Cc1ccccc1F` [Compound 5, 9-(2-fluorobenzyl)-6-isopropylamino-9H-purine], in the data set on rats (setting [1]), the ED50 was found to be 5.8 ± 0.6 mg/kg.
As to `CCCNc1ncnc2c1ncn2Cc1ccccc1F` [Compound 9, 9-(2-fluorobenzyl)-6-propylamino-9H-purine], the ED50 in the data set on rats (setting [1]) was 5.1 ± 0.5 mg/kg; in the data set with rats (setting [2]), 4.6 ± 1 mg/kg.
A word on the LD50: it is the dose at which mortality reaches 50%. Lower therefore signals greater toxicity. As for `CNc1ncnc2c1ncn2Cc1ccccc1F` [Compound 1, 9-(2-Fluorobenzyl)-6-methylamino-9H-purine], in “LD50 in the rat”, the LD50 was ~1000 mg/kg. Further, the ED50 in the data set on rats (ip, read-out: MES ED50 (mg/kg) i.p.) was determined as 1.7 ± 0.4 mg/kg; with rats (po, read-out: MES ED50 (mg/kg) p.o.), 2.5 ± 0.4 mg/kg. In the data set on Eimeria tenella, the E.tenella cleared is recorded as 2/5.
For `CNc1ncnc2c1ncn2Cc1c(F)cccc1F` [Compound 13], the ED50 in the data set with rats (setting [1]) amounted to 2 mg/kg.
For the compound `Nc1ncnc2c1ncn2Cc1ccccc1F` [Compound 16, 6-Amino-9-(2-fluorobenzyl)-9H-purine], the values for the ED50 in the data set on rats (setting [1]) and in the data set on rats (setting [2]) were 2.4 ± 0.6 mg/kg and 2.2 ± 0.4 mg/kg, respectively.
`Nc1ncnc2c1ncn2Cc1cc(F)ccc1F` [Compound 28, 6-amino-9-(2,5-difluorobenzyl)-9H-purine]: the ED50 in the data set with rats (setting [1]) worked out at 5 mg/kg.
Turning to `Fc1ccccc1Cn1cnc2c(NC3CCCC3)ncnc21` [Compound 11, 6-cyclopentylamino-9-(2-fluorobenzyl)-9H-purine], the ED50 in the data set with rats (setting [1]) was found to be 8 ± 1 mg/kg.
As to `Nc1ncnc2c1ncn2Cc1c(F)cccc1F` [Compound 27, 6-amino-9-(2,6-difluorobenzyl)-9H-purine], in the data set on rats (setting [1]), the ED50 was determined as 9 mg/kg.
